Measurements: ChEMBL document CHEMBL1949518, “Synthesis and biological evaluation of some new 2-pyrazolines bearing benzene sulfonamide moiety as potential anti-inflammatory and anti-cancer agents” (Eur J Med Chem, 2011)

Experiments:
SW-620 = assay: Anticancer activity against human SW620 cells after 48 hrs by SRB assay; format: functional; conditions: SW-620, 48 h
OVCAR-8 = assay: Anticancer activity against human OVCAR8 cells after 48 hrs by SRB assay; format: functional; conditions: OVCAR-8, 48 h; for CC50: read-out: LC50 (the source's name)
MDA-MB-468 = assay: Anticancer activity against human MDA-MB-468 cells after 48 hrs by SRB assay; format: functional; conditions: MDA-MB-468, 48 h; for CC50: read-out: LC50 (the source's name)
BT-549 = assay: Anticancer activity against human BT549 cells after 48 hrs by SRB assay; format: functional; conditions: BT-549, 48 h; for CC50: read-out: LC50 (the source's name)
COLO 205 = assay: Anticancer activity against human COLO205 cells after 48 hrs by SRB assay; format: functional; conditions: COLO 205, 48 h
M14 = assay: Anticancer activity against human M14 cells after 48 hrs by SRB assay; format: functional; conditions: M14, 48 h; for CC50: read-out: LC50 (the source's name)
HOP-92 = assay: Anticancer activity against human HOP92 cells after 48 hrs by SRB assay; format: functional; conditions: HOP-92, 48 h
Rattus norvegicus = assay: Ulcerogenic activity in fasted Wistar albino rat at 60 mg/kg, po administered as 3 dose measured after 6 hrs post last dose; format: toxicity, organism-based; design: dose 60 mg/kg, route oral; conditions: in vivo
SNB-75 = assay: Anticancer activity against human SNB75 cells after 48 hrs by SRB assay; format: functional; conditions: SNB-75, 48 h
[1] = molecular target: Prostaglandin G/H synthase 1 (Bos taurus, UniProt O62664); assay: Inhibition of bovine COX1 assessed as PGE2 formation preincubated for 10 mins by ELISA
Sequence of Prostaglandin G/H synthase 1 (O62664 whole entry): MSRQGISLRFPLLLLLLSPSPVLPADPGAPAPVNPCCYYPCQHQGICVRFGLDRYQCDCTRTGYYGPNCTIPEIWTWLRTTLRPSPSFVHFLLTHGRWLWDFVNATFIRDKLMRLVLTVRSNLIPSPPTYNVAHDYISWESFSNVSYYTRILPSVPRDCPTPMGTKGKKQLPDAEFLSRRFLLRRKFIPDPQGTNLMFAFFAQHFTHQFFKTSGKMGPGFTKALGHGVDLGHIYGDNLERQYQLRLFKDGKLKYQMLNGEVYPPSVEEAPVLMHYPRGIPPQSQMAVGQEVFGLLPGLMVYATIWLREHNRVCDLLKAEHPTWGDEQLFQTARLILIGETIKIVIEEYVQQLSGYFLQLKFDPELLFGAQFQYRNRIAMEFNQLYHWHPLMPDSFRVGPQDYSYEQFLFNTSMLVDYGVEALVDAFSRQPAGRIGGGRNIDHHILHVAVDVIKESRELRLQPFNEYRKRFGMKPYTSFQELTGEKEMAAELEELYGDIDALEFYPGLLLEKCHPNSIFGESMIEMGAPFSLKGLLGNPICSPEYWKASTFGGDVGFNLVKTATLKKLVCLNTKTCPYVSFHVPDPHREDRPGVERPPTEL

SF-539 = assay: Anticancer activity against human SF539 cells after 48 hrs by SRB assay; format: functional; conditions: SF-539, 48 h
Mus musculus [2] = assay: Toxicity in Swiss albino mouse assessed as mortality at 100 mg/kg, po measured up to 24 hrs; format: organism-based; design: dose 100 mg/kg, route oral; conditions: in vivo
Mus musculus [3] = assay: Toxicity in Swiss albino mouse assessed as behavioral change at 100 mg/kg, po measured up to 24 hrs; format: organism-based; design: dose 100 mg/kg, route oral; conditions: in vivo
NCI-H522 = assay: Anticancer activity against human NCI-H522 cells after 48 hrs by SRB assay; format: functional; conditions: NCI-H522, 48 h
SNB-19 = assay: Anticancer activity against human SNB19 cells after 48 hrs by SRB assay; format: functional; conditions: SNB-19, 48 h
Malme-3M = assay: Anticancer activity against human MALME-3M cells after 48 hrs by SRB assay; format: functional; conditions: for CC50: read-out: LC50 (the source's name)
NCI-H226 = assay: Anticancer activity against human NCI-H226 cells after 48 hrs by SRB assay; format: functional; conditions: NCI-H226, 48 h
SK-MEL-28 = assay: Anticancer activity against human SK-MEL-28 cells after 48 hrs by SRB assay; format: functional; conditions: SK-MEL-28, 48 h
UACC-62 = assay: Anticancer activity against human UACC62 cells after 48 hrs by SRB assay; format: functional; conditions: UACC-62, 48 h
SR = assay: Anticancer activity against human SR cells after 48 hrs by SRB assay; format: functional
UO-31 = assay: Antiproliferative activity against human UO31 cells assessed as cell growth at 10^-5 M after 48 hrs by SRB assay relative to control; format: functional; conditions: UO-31, 48 h, read-out: Activity
RPMI-8226 = assay: Anticancer activity against human RPMI8226 cells after 48 hrs by SRB assay; format: functional; conditions: RPMI-8226, 48 h
HCT-116 = assay: Anticancer activity against human HCT116 cells after 48 hrs by SRB assay; format: functional; conditions: HCT-116, 48 h

## Cc1cc(O)c(C2=NN(c3ccc(S(N)(=O)=O)cc3)C(c3ccc(Cl)cc3)C2)c(C)c1Cl (configuration not stated)
SW-620
  GI50: 18.4 µM
  TGI: 37.8 µM
OVCAR-8
  GI50: 27.3 µM
  TGI: 100 µM
  CC50: 100 µM
MDA-MB-468
  GI50: 17.1 µM
  TGI: 33.8 µM
  CC50: 66.7 µM
BT-549
  GI50: 15.4 µM
  TGI: 43.3 µM
  CC50: 100 µM
COLO 205
  GI50: 12.3 µM
  TGI: 25.4 µM
M14
  GI50: 14 µM
  TGI: 29.4 µM
  CC50: 61.5 µM
HOP-92
  GI50: 10.3 µM
  TGI: 23.6 µM
Rattus norvegicus
  Activity: Non-toxic
SNB-75
  GI50: 17 µM
  TGI: 42.2 µM
[1]
  IC50: 89.5 µM
SF-539
  GI50: 15.7 µM
  TGI: 29.3 µM
Mus musculus [2]
  Activity: Non-toxic
Mus musculus [3]
  Activity: Non-toxic
NCI-H522
  GI50: 18.6 µM
  TGI: 48.4 µM
SNB-19
  GI50: 22.2 µM
  TGI: 62.6 µM
Malme-3M
  GI50: 14.8 µM
  TGI: 32.7 µM
  CC50: 72.1 µM
NCI-H226
  GI50: 13.4 µM
  TGI: 29.4 µM
SK-MEL-28
  GI50: 19.4 µM
  TGI: 35.6 µM
UACC-62
  GI50: 9.92 µM
  TGI: 25.8 µM
SR
  GI50: 14.1 µM
  TGI: 37.5 µM

## Cc1cc(O)c(C2=NN(c3ccc(S(N)(=O)=O)cc3)C(c3ccc(N(C)C)cc3)C2)c(C)c1Cl (configuration not stated)
SW-620
  GI50: 3.72 µM
  LC50 (concentration killing 50% of cells): 50.2 µM
  TGI: 15.2 µM
OVCAR-8
  GI50: 5.75 µM
  TGI: 21.6 µM
  CC50: 66.4 µM
MDA-MB-468
  GI50: 10.7 µM
  TGI: 24.6 µM
  CC50: 56.8 µM
BT-549
  GI50: 1.31 µM
  TGI: 27.7 µM
  CC50: 58.9 µM
COLO 205
  GI50: 1.69 µM
  LC50: 6.49 µM
  TGI: 3.31 µM
M14
  GI50: 2.62 µM
  TGI: 10.4 µM
  CC50: 32.2 µM
HOP-92
  GI50: 3.74 µM
  LC50: 41.9 µM
  TGI: 17.6 µM
SNB-75
  GI50: 10.9 µM
  LC50: 51.2 µM
  TGI: 23.7 µM
SF-539
  GI50: 12.3 µM
  LC50: 49.7 µM
  TGI: 24.7 µM
NCI-H522
  GI50: 6.24 µM
  LC50: 58.8 µM
  TGI: 21.6 µM
SNB-19
  GI50: 12.4 µM
  LC50: 49.9 µM
  TGI: 24.9 µM
Malme-3M
  GI50: 14.8 µM
  TGI: 35.2 µM
  CC50: 83.4 µM
NCI-H226
  GI50: 10.5 µM
  LC50: 55.6 µM
  TGI: 24.1 µM
SK-MEL-28
  GI50: 11.7 µM
  LC50: 48.9 µM
  TGI: 23.9 µM
UACC-62
  GI50: 3.49 µM
  LC50 (lethal concentration 50%): 38.8 µM
  TGI: 15.1 µM
UO-31
  growth at 10 µM: 66.6%
RPMI-8226
  GI50: 3.99 µM
  LC50: 22.3 µM
  TGI: 5.02 µM
HCT-116
  GI50: 3.47 µM
  LC50 (concentration killing 50% of cells): 36 µM
  TGI: 12.9 µM
SR
  GI50: 1.28 µM
  LC50 (concentration killing 50% of cells): 45.9 µM
  TGI: 17.8 µM

## COc1ccc(C2CC(c3c(O)cc(C)c(Cl)c3C)=NN2c2ccc(S(N)(=O)=O)cc2)cc1 (configuration not stated)
UO-31
  growth at 10 µM: 93.3%
